Data published in patent publication US20090203663A1, “CHEMICAL COMPOUNDS” (AstraZeneca AB, priority 2006, published 2009).

How the values were obtained:
human α5β1 = target: T1, human α5β1 (Homo sapiens, UniProt P05556+P08648); experiment: In vitro binding assay: inhibition of α5β1 integrin binding to human fibronectin fragment Fn9-10 (Origen electrochemiluminescence); conditions: α5β1 integrin binding to biotinylated Fn9-10; IC50 data; unit inferred
T1 construct: human α5β1 purified from placenta; purchased Chemicon CC1055-K; host or cells: human placenta (tissue-purified)
T1 sequence (P08648 42-894 limits assumed): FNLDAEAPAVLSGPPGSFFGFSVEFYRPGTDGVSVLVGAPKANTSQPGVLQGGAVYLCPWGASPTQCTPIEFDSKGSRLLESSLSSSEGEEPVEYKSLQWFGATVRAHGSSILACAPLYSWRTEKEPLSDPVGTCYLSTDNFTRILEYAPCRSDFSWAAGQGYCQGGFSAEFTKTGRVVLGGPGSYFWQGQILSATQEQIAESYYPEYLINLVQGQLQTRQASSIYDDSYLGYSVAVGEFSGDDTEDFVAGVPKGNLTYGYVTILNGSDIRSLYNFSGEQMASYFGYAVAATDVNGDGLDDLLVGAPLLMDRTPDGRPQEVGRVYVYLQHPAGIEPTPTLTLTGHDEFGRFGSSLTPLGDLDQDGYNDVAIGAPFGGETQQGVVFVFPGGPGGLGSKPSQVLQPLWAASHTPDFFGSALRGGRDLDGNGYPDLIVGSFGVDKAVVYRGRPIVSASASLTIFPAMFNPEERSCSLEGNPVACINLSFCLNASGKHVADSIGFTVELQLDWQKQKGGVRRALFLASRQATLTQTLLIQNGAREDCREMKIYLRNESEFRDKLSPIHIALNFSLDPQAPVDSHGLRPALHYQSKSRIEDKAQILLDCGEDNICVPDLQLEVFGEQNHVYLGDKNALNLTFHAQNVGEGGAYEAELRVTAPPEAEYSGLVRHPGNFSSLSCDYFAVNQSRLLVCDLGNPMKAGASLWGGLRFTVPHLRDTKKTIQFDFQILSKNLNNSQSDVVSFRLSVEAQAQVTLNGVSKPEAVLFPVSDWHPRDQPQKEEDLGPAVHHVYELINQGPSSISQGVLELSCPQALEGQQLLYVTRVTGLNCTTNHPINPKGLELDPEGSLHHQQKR
T1 sequence (P08648 895-1049 partner limits assumed): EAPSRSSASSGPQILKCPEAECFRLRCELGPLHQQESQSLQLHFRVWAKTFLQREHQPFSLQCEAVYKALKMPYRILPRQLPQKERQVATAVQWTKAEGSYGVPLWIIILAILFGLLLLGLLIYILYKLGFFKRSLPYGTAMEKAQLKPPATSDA
T1 sequence (P05556 21-798): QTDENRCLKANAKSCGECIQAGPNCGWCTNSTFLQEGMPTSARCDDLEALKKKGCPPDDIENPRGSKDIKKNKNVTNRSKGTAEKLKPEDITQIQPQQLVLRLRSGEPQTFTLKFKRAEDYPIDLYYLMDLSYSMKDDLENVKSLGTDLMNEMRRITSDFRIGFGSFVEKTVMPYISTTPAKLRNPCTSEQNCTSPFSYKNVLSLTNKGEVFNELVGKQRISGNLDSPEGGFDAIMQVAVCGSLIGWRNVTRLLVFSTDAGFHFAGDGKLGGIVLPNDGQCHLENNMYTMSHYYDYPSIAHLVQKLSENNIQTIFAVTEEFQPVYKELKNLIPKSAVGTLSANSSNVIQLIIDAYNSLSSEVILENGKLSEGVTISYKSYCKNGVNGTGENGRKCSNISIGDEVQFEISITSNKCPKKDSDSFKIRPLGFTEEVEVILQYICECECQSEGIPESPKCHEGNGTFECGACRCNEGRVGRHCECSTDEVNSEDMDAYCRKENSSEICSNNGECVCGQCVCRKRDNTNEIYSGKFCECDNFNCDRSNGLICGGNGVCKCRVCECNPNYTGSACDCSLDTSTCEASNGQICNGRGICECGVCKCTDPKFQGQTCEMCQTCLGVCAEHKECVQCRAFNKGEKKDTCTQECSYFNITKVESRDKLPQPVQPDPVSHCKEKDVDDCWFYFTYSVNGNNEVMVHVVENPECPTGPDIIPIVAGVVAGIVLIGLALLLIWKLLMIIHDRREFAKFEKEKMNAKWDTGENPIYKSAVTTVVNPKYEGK
Excerpt: The assay determined the ability of compounds to inhibit binding of α5β1 integrin to a cognate ligand, a fragment of human fibronectin. The assay used Origen technology (IGEN International) to measure the compound activity. Briefly, α5β1 integrin was coated onto epoxy-paramagnetic beads (Dynal Biotech UK, Bromborough, Wirral, CH62 3QL, UK, Catalogue No 143.02) and biotinylated-fibronectin ligand was coupled to strepatividin labelled BV-Tag-NHS-Ester (BioVeris Corporation, Witney, Oxfordshire, OX28 4GE, UK, Catalogue No JSF396). The ruthenium-labelled BV-Tag emits a electrochemiluminescence signal upon stimulation which is detected by the Origen reader. Thus, interaction of integrin and ligand causes association of bead and tag, and the resulting electrochemiluminescence signal reflects the level of integrin interaction with fibronectin.
Coated beads were then washed into Assay Buffer (25 mM Hepes, 150 mM NaCl, 1 mM MgCl, 1 mM MnCl, 0.1% Tween, pH7.4) to give a final concentration of 20 µg of α5β1/ml. Immediately prior to the assay, the beads were further diluted ×40 fold in Assay Buffer to give a concentration of 0.5 μg α5β1/ml.
A DNA fragment encoding the domains 9-10 (amino-acids 1325-1509) of human fibronectin (Swiss-Prot Acession No. P02751) was isolated from cDNA libraries using standard molecular biology and PCR cloning techniques. The cDNA fragment was sub-cloned into a pT73.3 expression vector containing a GST-epitope tag (developed at AstraZeneca; Bagnall et al., Protein Expression and Purification, 2003, 27: 1-11). Following expression in E. coli, the expressed protein, termed Fn9-10, was purified using the GST-tag using standard purification techniques. The recombinant Fn9-10 was subsequently biotinylated using a EZ-link Sulfo-NHS-LC-Biotinylation kit (Perbio Science UK Ltd., Cramlington, Northumberland, NE23 1WA, UK, Catalogue No. 21335) and made to give a final concentration of approximately 1 mg/ml. BV-Tag-NHS-Ester was is labelled with streptavidin by incubation at room temperature following manufacturers instructions and buffer-exchanged into PBS to give a concentration of 0.5 mg/ml. Immediately prior to the assay, biotinylated-Fn9-10 and Streptavidin-labelled BV-Tag were diluted in Assay Buffer to give a final concentrations of 0.6 ug/ml and 1.5 ug/ml respectively. The Fn9-10 and BV-Tag solutions were then mixed together in equal volumes and incubated on ice for at least 30 minutes prior to the assay.
Test compounds were prepared as 10 mM stock solutions in DMSO (Sigma-Aldrich Company Ltd, Gillingham, Dorset SP8 4XT Catalogue No. 154938) and serially diluted with 4% DMSO to give a range of test concentrations at ×4 required final concentration. Aliquots (20 μl) of each compound dilution were placed into each well of a 384-well round bottomed polypropylene plate (Matrix Technologies, Wilmslow, Cheshire, SK9 3LP, Catalogue No. 4340 384). Each plate also contained control wells: maximum signal was created using wells containing 20 μl of 4% DMSO, and minimum signal corresponding to no binding was created using wells containing 20 μl of 80 mM EDTA (Sigma Catalogue No. E7889).
For the assay, 20 μl of a5b1-bead suspension and 40 μl of the Fn9-10/BV-Tag preincubated solution were added to each well containing 20 μl of compound or control solution. Assay plates were then incubated at room temperature for a minimum of 6 hours before being analysed on the Origen plate reader. […]

[1] = target: T2, a5β1 integrin mediated adhesion of K562 cells (Homo sapiens, UniProt P05556+P08648); experiment: In vitro cell adhesion assay: adhesion of K562 cells to fibronectin fragment Fn9-10 (crystal violet); assay type: cell-based; conditions: K562 cells on Fn9-10 coated plates, 0.2 mM MnCl, 45 minutes; IC50 data; unit inferred
T2 construct: a5β1 integrin mediated adhesion of K562 cells; host or cells: K562 human erythroleukaemia cells
T2 sequence (P08648 42-894 limits assumed): as the sequence (P08648 42-894 limits assumed) above
T2 sequence (P08648 895-1049 partner limits assumed): as the sequence (P08648 895-1049 partner limits assumed) above
T2 sequence (P05556 21-798): as the sequence (P05556 21-798) above
Excerpt: The assay determined the ability of compounds to inhibit the a5β1 integrin mediated adhesion of K562 cells to the ligand, a fragment of human fibronectin. The human K562 erythroleukaemia cell line (LGC Promochem, Teddington, Middlesex, UK, Catalogue No. CCL-243) was routinely maintained in RPMI 1640 medium (Sigma-Aldrich Company Ltd, Gillingham, Dorset SP8 4XT, Catalogue No. R0883) containing 10% heat-inactivated foetal calf serum (PAA lab GmbH, Pasching, Austria Catalogue No. PAA-A15-043) and 1% glutamax-1 (Invitrogen Ltd. Paisley, UK Catalogue No. 35050-038) at 37° C. with 5% CO2 at densities between 1×10^5 and 1×10^6 cells/ml.
A DNA fragment encoding the domains 9-10 (amino-acids 1325-1509) of human fibronectin (Swiss-Prot Acession No. P02751) was isolated from cDNA libraries using standard molecular biology and PCR cloning techniques. The cDNA fragment was sub-cloned into a pT7#3.3 expression vector containing a GST-epitope tag (developed at AstraZeneca; Bagnall et al., Protein Expression and Purification, 2003, 27: 1-11), and the fragment termed Fn9-10. Following expression in E. coli, the expressed protein was purified using the GST-tag using standard purification techniques.
For adhesion assay, a 96-well flat bottomed plate (Greiner Bio one ltd., Gloucester GL10 3SX Catalogue No. 655101) was coated overnight at 4° C. with 100 μl of 20 μg/ml Fn9-10 ligand in Dulbecco's PBS (Gibco#14190-94). The plate was then washed twice with 200 μl of PBS and blocked with 100 μl of 3% BSA (SigmaA7888) in PBS for 1 hour at 37° C. The plates were then washed again 3 times with 200 μl of PBS and left empty.
Test compounds were prepared as 10 mM stock solutions in DMSO (Sigma-Aldrich Company Ltd, Gillingham, Dorset SP8 4XT Catalogue No. 154938) and serially diluted with HBSS (Hanks Buffered Salt solution (Gibco Catalogue No. 14170-088)/2% DMSO to give a range of test concentrations at twice required final concentration. Aliquots (50 μl) of each compound dilution were placed into each well of the Fn9-10 coated plates. Each plate also contained control wells: maximum adhesion signal was created using wells containing 50 μl HBSS/2% DMSO, and minimum signal corresponding to no adhesion was created using wells containing 50 μl HBSS/2% DMSO/20 mM EDTA (Sigma Catalogue No. E7889).
The K562 cells were cultured to ˜1×10^6 cells/ml, and each culture suspension pooled. Cells were centrifuged at 1200 rpm for 2 mins, and the pellets washed with HBSS followed by HBSS/50 mM HEPES (Sigma Catalogue No. H0887). Cell pellets were pooled and resuspended in HBSS/0.4 mM manganese chloride/50 mM HEPES (MnCl; Sigma Catalogue No. M1787) to give a final concentration of 4×10^6 cells/ml.
The assay was initiated by the addition of 50 μl of cell suspension into each coated well (200,000 cells/well), thus resulting in final desired compound concentration and a final MnCl concentration of 0.2 mM. The plates were incubated for 45 minutes at 37° C. 5% CO2. […]
After fixation, the ethanol was flicked off to waste and 100 μl of 0.1% Crystal violet stain was added to each well, and incubated at ambient temperature for 15 minutes. […] Finally, 100 μl of deionised water was added to each well and the absorbance was determined at 590 nm on a spectrophotometer. The minimum value was subtracted from all values, and the absorbance signal was plotted against compound concentration to generate IC50 data.

Row | IC50 (human α5β1) [µM] | IC50 [1] [µM] | Compound
1 | 1.2 | 9.3 | N-(2,6-Dichlorobenzoyl)-O-[(3R)-pyrrolidin-3-yl]-L-tyrosine [Example 17]
2 | 1.7 | 6.6 | N#Cc1cccc(CN2CCC(Oc3ccc(C[C@H](NC(=O)c4c(Cl)cccc4Cl)C(=O)O)cc3)CC2)c1 [Example 83, O-[1-(3-cyanobenzyl)piperidin-4-yl]-N-(2,6-dichlorobenzoyl)-L-tyrosine]
3 | 4.1 | 11.4 | O=C(N[C@@H](Cc1ccc(O[C@H]2CCCN(Cc3cc(F)ccc3F)C2)cc1)C(=O)O)c1c(Cl)cccc1Cl [Example 76, N-(2,6-dichlorobenzoyl)-O-[(3S)-1-(2,5-difluorobenzyl)piperidin-3-yl]-L-tyrosine]
4 | 0.466 | 4 | Cc1cc(C(=O)N2CC(Oc3ccc(C[C@H](NC(=O)c4c(Cl)cccc4Cl)C(=O)O)cc3)C2)ccc1F [Example 48, N-(2,6-dichlorobenzoyl)-O-[1-(4-fluoro-3-methylbenzoyl)azetidin-3-yl]-L-tyrosine]
5 | 0.185 | 2.4 | CN1CCC(Oc2ccc(C[C@H](NC(=O)c3c(Cl)cccc3Cl)C(=O)O)cc2)CC1 [Example 20, N-(2,6-Dichlorobenzoyl)-O-(1-methylpiperidin-4-yl)-L-tyrosine]
